From patent EP0597303A2, “Cephalosporin derivatives” (priority 1992, dated 1994)
Structures can show the parent of a compound that is named as a salt. Where two headings read alike, the source gives them in different places.

What was measured:
Experiment in all cases: MIC, Agar (Mueller Hinton) Dilution Method
Assay type in all cases: cell-based
E. coli ATCC 25922 = details: Escherichia coli, ATCC25922
Description: (§1) The in vitro activity of the compounds of formula I of the present invention as measured by the Minimum Inhibitory Concentration (MIC) in micrograms/ml utilizing the Agar (Mueller Hinton) Dilution Method against a variety of Gram-positive and Gram-negative organisms, is set forth in Table 1.

Enterobacter cloacae P99 = system: Enterobacter cloacae P99
Description: as §1

Enter. cloacae 5699 = details: Enterobacter cloacae, Gram Negative
Description: as §1

Staph. aureus 404 = details: Staphylococcus aureus, 404
Description: as §1

Serratia marcescens SM = system: Serratia marcescens SM
Description: as §1

Ps. aeruginosa 765 = details: Pseudomonas aeruginosa, Gram Negative
Description: as §1

Cit. freundii EL-1408 = details: Citrobacter freundii, EL1408
Description: as §1

Micrococcus luteus PCI = details: Micrococcus luteus PCI; Gram Positive and Others; read-out: MIC
Description: as §1

Ps. aeruginosa 56 = details: Pseudomonas aeruginosa, Gram Negative
Description: as §1

Staph. aureus 3647B = details: Staphylococcus aureus, 3647B
Description: as §1

Candida albicans 155 = details: Gram Positive and Others
Description: as §1

E. coli 2721B = details: Escherichia coli
Description: as §1

Bacillus subtilis 558 = system: Bacillus subtilis 558
Description: as §1

E. coli Leo HA2 = details: Escherichia coli, LEOHA2, Gram Negative
Description: as §1

Xan. maltophilia 2897B = details: Stenotrophomonas maltophilia, Gram Negative
Description: as §1

Bacillus megaterium 164 = details: Priestia megaterium
Description: as §1

Ps. aeruginosa 1937E = details: Pseudomonas aeruginosa, Gram Negative
Description: as §1

E. coli 2008 E = details: Escherichia coli
Description: as §1

Mycobacterium phlei 78 = details: Mycolicibacterium phlei
Description: as §1

[1] = system: Pseudomonas aeruginosa 5712; details: Gram Negative
Description: as §1

E. coli 4 = details: Escherichia coli, 4
Description: as §1

[2] = system: Ps. aeruginosa ATCC 27853; details: Pseudomonas aeruginosa, ATCC27853, Gram Negative
Description: as §1

Ser. marcescens 1071 = details: Serratia marcescens, 1071
Description: as §1

[3] = system: Citrobacter freundii BS-16; details: BS16
Description: as §1

E. coli 2722B = details: Escherichia coli, Gram Negative
Description: as §1

E. coli 1573E = details: Escherichia coli; E. coli 1573E; Gram Negative; read-out: MIC
Description: as §1

Ps. aeruginosa B = details: Pseudomonas aeruginosa, Gram Negative
Description: as §1

Enter. cloacae 4946 = details: Enterobacter cloacae, Gram Negative
Description: as §1

Escherichia coli 257 = details: Gram Negative
Description: as §1

Staph. aureus 95 = details: Staphylococcus aureus, 95
Description: as §1

E. coli 1269B = details: Escherichia coli, Gram Negative
Description: as §1

Staph. aureus Evans = details: Staphylococcus aureus
Description: as §1

E. coli DC-2 = details: Escherichia coli, DC2, Gram Negative
Description: as §1

Prot. mirabilis 503-1136 = details: Proteus mirabilis, 5031136
Description: as §1

Prot. mirabilis 190 = details: Proteus mirabilis
Description: as §1

Prot. vulgaris 1028 BC = details: Proteus vulgaris
Description: as §1

Ps. aeruginosa 18SH = details: Pseudomonas aeruginosa, constitutive ß-lactamase producer, Gram Negative
Description: as §1

E. coli TEM-1a = details: Escherichia coli, TEM1A
Description: as §1

Staph. aureus 753 = details: Staphylococcus aureus
Description: as §1

K. oxytoca 1082EN = details: Klebsiella oxytoca; K. oxytoca 1082EN; Gram Negative; read-out: MIC
Description: as §1

Row | Structure (SMILES) | MIC (Enterobacter cloacae P99) | MIC (Enter. cloacae 5699) | MIC (Staph. aureus 404) | MIC (Ps. aeruginosa 765) | MIC (Micrococcus luteus PCI) | MIC (Ps. aeruginosa 56) | MIC (Staph. aureus 3647B) | MIC (Candida albicans 155) | MIC (E. coli Leo HA2) | MIC (Xan. maltophilia 2897B) | MIC (Ps. aeruginosa 1937E) | MIC [1] | MIC (E. coli 4) | MIC [2] | MIC (Ser. marcescens 1071) | MIC (E. coli 2722B) | MIC (E. coli 1573E) | MIC (Ps. aeruginosa B) | MIC (Enter. cloacae 4946) | MIC (Escherichia coli 257) | further results
1 | N#CCC(=O)N[C@@H]1C(=O)N2C(C(=O)O)=C(COC(=O)N[C@H]3CCN(c4c(F)cc5c(=O)c(C(=O)O)cn(C6CC6)c5c4F)C3)CS[C@H]12 [Formula Iba, [6R-[3(S^*), 6 alpha, 7 beta]]-3-[[[[[1-(3-Carboxy-1-cyclopropyl-6,8-difluoro-1,4-dihydro-4-oxo-7-quinolinyl-3-pyrrolidinyl]-amino]carbonyl]oxy]methyl]-7-[(cyanoacetyl)amino]-8-oxo-5-thia 1-azabicyclo[4.2.0]oct-2-ene-2-carboxylic acid monosodium salt] | ≤ 0.0156 µg/mL | 0.0625 µg/mL | 0.0313 µg/mL | 0.5 µg/mL | 0.0625 µg/mL | 0.25 µg/mL | 0.0313 µg/mL | > 128 µg/mL | ≤ 0.0156 µg/mL | 0.25 µg/mL | 0.25 µg/mL | 2 µg/mL | 0.0313 µg/mL | 1 µg/mL | 0.0313 µg/mL | ≤ 0.0156 µg/mL | ≤ 0.0156 µg/mL | 0.25 µg/mL | 0.0313 µg/mL | 0.0313 µg/mL | MIC (E. coli ATCC 25922): 0.0313 µg/mL; MIC (Serratia marcescens SM; Serratia marcescens): 0.125 µg/mL; MIC (Cit. freundii EL-1408): 0.125 µg/mL; MIC (E. coli 2721B; E. coli 2721B, Gram Negative, read-out: MIC): ≤ 0.0156 µg/mL; MIC (Bacillus subtilis 558; Bacillus subtilis, 558): 0.0313 µg/mL; MIC (Bacillus megaterium 164; 164): 0.0313 µg/mL; MIC (E. coli 2008 E; 2008E): 0.0313 µg/mL; MIC (Mycobacterium phlei 78; Mycobacterium phlei 78, Gram Positive and Others, read-out: MIC): 0.0625 µg/mL; MIC ([3]; Citrobacter freundii BS-16, constitutive ß-lactamase producer, Gram Negative, read-out: MIC): ≤ 0.0156 µg/mL; MIC (Staph. aureus 95): 0.0313 µg/mL; MIC (E. coli 1269B): ≤ 0.0156 µg/mL; MIC (Staph. aureus Evans): 0.0313 µg/mL; MIC (E. coli DC-2): 0.0625 µg/mL; MIC (Prot. mirabilis 503-1136; Prot. mirabilis 503-1136, Gram Negative, read-out: MIC): 0.0625 µg/mL; MIC (Prot. mirabilis 190; 190): 0.0313 µg/mL; MIC (Prot. vulgaris 1028 BC; Prot. vulgaris 1028 BC, Gram Negative, read-out: MIC): ≤ 0.0156 µg/mL; MIC (Ps. aeruginosa 18SH): 0.25 µg/mL; MIC (E. coli TEM-1a): 0.0313 µg/mL; MIC (Staph. aureus 753; Staph. aureus 753, methicillin-resistant, Gram Positive and Others, read-out: MIC): 0.0625 µg/mL; MIC (K. oxytoca 1082EN): ≤ 0.0156 µg/mL
2 | N#CCC(=O)N[C@@H]1C(=O)N2C(C(=O)O)=C(COC(=O)N[C@@H]3CCN(c4c(F)cc5c(=O)c(C(=O)O)cn(C6CC6)c5c4F)C3)CS[C@H]12 [Formula Ibb, [6R-[3(R^*), 6 alpha, 7 beta]]-3-[[[[[1-(3-Carboxy-1-cyclopropyl-6,8-difluoro-1,4-dihydro-4-oxo-7-quinolinyl-3-pyrrolidinyi]amino]carbonyl]oxy]methyL]-7-[(cyanoacetyl)amino]-8-oxo-5-thia-1-azabicyclo[4.2.0]oct-2-ene-2-carboxylic acid monosodium salt] | ≤ 0.0156 µg/mL | 0.25 µg/mL | 0.125 µg/mL | 2 µg/mL | 0.0625 µg/mL | 1 µg/mL | 0.125 µg/mL | > 128 µg/mL | ≤ 0.0156 µg/mL | 0.5 µg/mL | 1 µg/mL | 4 µg/mL | 0.125 µg/mL | 2 µg/mL | 0.125 µg/mL | ≤ 0.0156 µg/mL | 0.0625 µg/mL | 1 µg/mL | 0.125 µg/mL | 0.125 µg/mL | MIC (E. coli ATCC 25922; E. coli ATCC 25922, Gram Negative, read-out: MIC): 0.0625 µg/mL; MIC (Serratia marcescens SM; Serratia marcescens SM, constitutive ß-lactamase producer, Gram Negative, read-out: MIC): 0.25 µg/mL; MIC (Cit. freundii EL-1408; Cit. freundii EL-1408, Gram Negative, read-out: MIC): 0.5 µg/mL; MIC (E. coli 2721B; 2721B): 0.0313 µg/mL; MIC (Bacillus subtilis 558; Bacillus subtilis 558, Gram Positive and Others, read-out: MIC): 0.0625 µg/mL; MIC (Bacillus megaterium 164; Bacillus megaterium 164, Gram Positive and Others, read-out: MIC): 0.0625 µg/mL; MIC (E. coli 2008 E; E. coli 2008 E, Gram Negative, read-out: MIC): 0.0625 µg/mL; MIC (Mycobacterium phlei 78; 78): 0.125 µg/mL; MIC ([3]; Citrobacter freundii): 0.0313 µg/mL; MIC (Staph. aureus 95): 0.125 µg/mL; MIC (E. coli 1269B): 0.0625 µg/mL; MIC (Staph. aureus Evans; Staph. aureus Evans, Gram Positive and Others, read-out: MIC): 0.0625 µg/mL; MIC (E. coli DC-2): 0.25 µg/mL; MIC (Prot. mirabilis 503-1136): 0.125 µg/mL; MIC (Prot. mirabilis 190; Prot. mirabilis 190, Gram Negative, read-out: MIC): 0.0625 µg/mL; MIC (Prot. vulgaris 1028 BC; 1028BC): 0.0313 µg/mL; MIC (Ps. aeruginosa 18SH): 1 µg/mL; MIC (E. coli TEM-1a): 0.125 µg/mL; MIC (Staph. aureus 753; 753): 0.125 µg/mL; MIC (K. oxytoca 1082EN): 0.0625 µg/mL
